# Results reported in US9308183B2, “Therapy for hyperexcitability disorders” (UCB PHARMA GMBH, priority 2006, dated 2016).
# Like-named read-outs stand apart in the source and are kept apart here.
# Experiments:
# [1] = system: 129SVEV mice; assay: Stress-induced hyperthermia (SIH) test, animal model for stress-induced anxiety; assay type: in vivo, mouse
# Experimental: The room temperature was maintained between 20 and 23° C. with a relative humidity maintained between 30% and 70%.
# On the day prior to testing, the mice were brought to the experimental room one hour before scheduled lights out and singly housed overnight with food and water ad libitum. […] The probe remained inside the animal for approximately 5 seconds or until body temperature reached stability. This temperature was recorded as the baseline rectal temperature (T1). […] Before each insertion, the rectal probe was cleaned with an alcohol pad and lubricated with sterile K-Y jelly.
# [2] = system: Sodium channels in mouse neuroblastoma N1E-115 cells; assay: Sodium current fast and slow inactivation in neuroblastoma cells (holding potential/prepulse protocols); assay type: cell-based; conditions: for current when the holding potential was −60 mV: 10 ms test pulse to 0 mV; for fraction available after 500 ms hyperpolarizing pulse to −100 mV, compared to control values: holding potential −60 mV; for % of channels in the slow inactivated state: held at −80 mV, 10 s to −10 mV, 1.5 s recovery, VEH 27%
# [3] = system: rat hippocampal slice cultures; assay type: cell-based
# [4] = system: rat hippocampal slice cultures; assay type: cell-based; conditions: for reduction of overall damage: LDH release 24 h after Glut
# [5] = molecular target: T1, rat type II sodium channel alpha subunit (Nav1.2) (Rattus norvegicus, UniProt P04775); assay: Sodium currents in Xenopus oocytes expressing sodium channel alpha subunits; assay type: cell-based
# T1 construct: expressed in transfected cells; host or cells: Xenopus oocytes
# T1 sequence (P04775 whole entry): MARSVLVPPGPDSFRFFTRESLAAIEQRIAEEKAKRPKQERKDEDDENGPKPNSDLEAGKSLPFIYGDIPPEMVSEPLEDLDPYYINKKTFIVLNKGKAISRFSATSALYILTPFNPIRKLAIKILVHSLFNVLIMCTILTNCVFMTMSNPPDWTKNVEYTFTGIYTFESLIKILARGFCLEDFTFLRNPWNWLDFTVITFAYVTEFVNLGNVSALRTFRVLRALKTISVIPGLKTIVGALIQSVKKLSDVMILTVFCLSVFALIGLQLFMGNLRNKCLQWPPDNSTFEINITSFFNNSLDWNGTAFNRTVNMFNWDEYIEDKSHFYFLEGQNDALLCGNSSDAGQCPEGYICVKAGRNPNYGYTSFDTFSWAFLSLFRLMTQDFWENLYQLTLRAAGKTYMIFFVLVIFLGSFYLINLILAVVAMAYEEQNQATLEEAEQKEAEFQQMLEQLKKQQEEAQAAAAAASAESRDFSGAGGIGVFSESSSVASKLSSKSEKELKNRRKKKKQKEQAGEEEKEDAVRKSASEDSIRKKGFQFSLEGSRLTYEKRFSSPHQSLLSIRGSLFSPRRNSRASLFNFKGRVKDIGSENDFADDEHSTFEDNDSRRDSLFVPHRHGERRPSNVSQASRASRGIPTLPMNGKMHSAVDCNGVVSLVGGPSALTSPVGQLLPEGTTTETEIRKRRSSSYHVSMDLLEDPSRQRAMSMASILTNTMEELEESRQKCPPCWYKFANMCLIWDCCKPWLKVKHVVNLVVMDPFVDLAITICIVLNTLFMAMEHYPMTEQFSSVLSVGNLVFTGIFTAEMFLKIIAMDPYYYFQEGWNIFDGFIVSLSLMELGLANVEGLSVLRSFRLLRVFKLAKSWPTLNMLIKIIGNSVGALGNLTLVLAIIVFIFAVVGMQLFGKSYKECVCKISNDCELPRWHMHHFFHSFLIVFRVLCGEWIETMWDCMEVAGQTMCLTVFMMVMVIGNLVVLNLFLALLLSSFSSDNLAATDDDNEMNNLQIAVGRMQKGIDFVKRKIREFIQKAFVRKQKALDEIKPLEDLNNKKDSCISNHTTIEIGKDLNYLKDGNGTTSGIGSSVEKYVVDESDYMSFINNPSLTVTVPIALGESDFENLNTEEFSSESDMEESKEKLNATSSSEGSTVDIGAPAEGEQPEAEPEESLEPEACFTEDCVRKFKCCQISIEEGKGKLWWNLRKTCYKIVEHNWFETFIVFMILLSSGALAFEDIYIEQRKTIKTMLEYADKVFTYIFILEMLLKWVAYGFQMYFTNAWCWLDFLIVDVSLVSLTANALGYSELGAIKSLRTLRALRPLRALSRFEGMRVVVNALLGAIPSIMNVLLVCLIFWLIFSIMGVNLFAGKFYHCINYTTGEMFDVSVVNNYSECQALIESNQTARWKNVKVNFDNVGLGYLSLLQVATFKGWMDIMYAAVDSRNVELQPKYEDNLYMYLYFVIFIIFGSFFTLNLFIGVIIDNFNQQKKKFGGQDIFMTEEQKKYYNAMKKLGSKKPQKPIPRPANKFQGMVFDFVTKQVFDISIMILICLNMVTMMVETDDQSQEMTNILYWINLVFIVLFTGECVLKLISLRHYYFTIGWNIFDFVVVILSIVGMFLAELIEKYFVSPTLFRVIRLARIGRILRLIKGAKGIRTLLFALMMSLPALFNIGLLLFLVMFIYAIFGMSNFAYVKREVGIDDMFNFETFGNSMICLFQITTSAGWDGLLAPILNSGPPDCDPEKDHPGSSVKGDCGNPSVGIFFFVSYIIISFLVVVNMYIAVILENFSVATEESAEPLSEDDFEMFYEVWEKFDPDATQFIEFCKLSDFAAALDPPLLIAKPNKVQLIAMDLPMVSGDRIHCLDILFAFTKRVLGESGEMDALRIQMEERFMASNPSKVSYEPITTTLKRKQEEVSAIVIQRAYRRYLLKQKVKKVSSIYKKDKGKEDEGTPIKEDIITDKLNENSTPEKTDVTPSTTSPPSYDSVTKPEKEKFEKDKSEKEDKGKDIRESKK
# [6] = system: TTX-resistant sodium currents in rat dorsal root ganglia; assay: Slow inactivation of TTX-resistant sodium current in dorsal root ganglia; assay type: cell-based; conditions: 100 μM
# [7] = system: sodium channels; assay type: cell-based; conditions: 100 μM
# [8] = system: sodium channels in rat cortical neurons, NIE-115 cells and Xenopus oocytes; assay: Effects upon firing, synaptic transmission and sodium channels in rat cortical neurons, NIE-115 cells and Xenopus oocytes; assay type: cell-based
# [9] = system: voltage-gated Na+ channels; conditions: cited from earlier work
# [10] = 10 μM, 15 mM glutamate for 24 h
structure (smiles),measurement,setting,value
"CC(C)C[C@H](CN)CC(=O)O [pregabalin, reference compound]",effect on SIH compared to saline,"[1]; mouse, in vivo, ip",No significant effects
"NC(=O)N1c2ccccc2C=Cc2ccccc21 [carbamazepine, reference compound]",current when the holding potential was −60 mV,[2]; 100 μM,reduction in current
same,"fraction available after 500 ms hyperpolarizing pulse to −100 mV, compared to control values",[2]; 100 μM,0.94±0.19
NC1=N[C@H](O)[C@H]2[C@H]3O[C@]4(O)O[C@@H]([C@@H](O)[C@@]2(N1)[C@@H]4O)[C@]3(O)CO [Tetrodotoxin],"neuronal damage (PI uptake, CA1-CA3) 24 h after Glut",[3],neuroprotective effect
same,reduction of neuronal damage,[3],~50%
same,overall damage (LDH release) 24 h after Glut,[4],protective effect
same,reduction of general damage,[4],20-40%
"Nc1nnc(-c2cccc(Cl)c2Cl)c(N)n1 [lamotrigine, reference compound]",current when the holding potential was −60 mV,[2]; 100 μM,reduction in current
same,"fraction available after 500 ms hyperpolarizing pulse to −100 mV, compared to control values",[2]; 100 μM,0.88±0.06
"O=C1NC(=O)C(c2ccccc2)(c2ccccc2)N1 [phenytoin, reference compound]",current when the holding potential was −60 mV,[2]; 100 μM,reduction in current
same,"fraction available after 500 ms hyperpolarizing pulse to −100 mV, compared to control values",[2]; 100 μM,0.99±0.05
"COC[C@@H](NC(C)=O)C(=O)NCc1ccccc1 [lacosamide, (R)-2-acetamido-N-benzyl-3-methoxy-propionamide]",V50 for slow inactivation,[2]; 32 μM and 100 μM,shift of the V50 for slow inactivation to more negative potentials
same,% of channels in the slow inactivated state,[2]; 32 μM,37%
same,conditioning potential of first significant change in channel availability,[2]; 100 μM,−80 mV
same,reduction of sodium channel availability that resulted from entry into the slow inactivated state,[2]; 100 μM,more than doubled
same,current when the holding potential was −60 mV,[2]; 100 μM,reduction in current
same,inhibition after hyperpolarizing prepulse (removal of fast inactivation),"[2]; 100 μM, 500 ms pulse to −100 mV",not altered
same,% of channels in the slow inactivated state,[2]; 100 μM,50%
same,% of channels in the slow inactivated state,[2]; 320 μM,62%
same,slow inactivation voltage curves,[2]; concentration dependent,shifted the slow inactivation voltage curves to more hyperpolarized membrane potentials
same,maximal fraction of current made unavailable by depolarisation,"[2]; conditioning potential −10 mV, CONTROL 0.70±0.02",0.41±0.04
same,time constant for entry into slow inactivation,"[2]; in the presence of the drug, physiological 12.0 s",4.8 s
same,slow inactivation voltage curve,"[5]; 100 μM, Xenopus oocytes, Nav1.2",pronounced shift
same,inhibition of sodium currents,[5]; oocyte expression system,rapid and profoundly voltage dependent inhibition
same,slow inactivation of TTX-resistant sodium currents,[6],markedly increased
same,fraction of sodium channels slowly inactivated by a 10 s depolarizing pulse,[7],significantly increased
same,half-life for channel recovery,[7]; after 10 s depolarizing pulse,not significantly changed
same,frequency of miniature excitatory post-synaptic potentials,[8],not reduced
same,prolonged sustained repetitive firing on action potentials,[8],inhibits
same,rate of sodium channel fast inactivation,[8],does not change
same,resting conductances,[8],no effect
same,slow prolonged bursting in cortical neurons,[8],inhibits
same,steady state fast inactivation voltage curves,[8],does not shift
same,sustained repetitive firing,[8],did not block
same,synaptic transmission under normal physiologic conditions,[8],did not modulate
same,action potential firing evoked by brief depolarising steps or ramps,[8]; initial studies,very limited effect
same,rate of synaptic traffic in cultured neurons,[8]; stereoselective and concentration dependent,attenuates
same,effect on SIH compared to saline,[1]; 3 mg/kg i.p. 60 min prior to testing,significantly attenuated
same,effect on SIH compared to saline,[1]; 10 mg/kg i.p. 60 min prior to testing,significantly attenuated
same,effect on SIH compared to saline,[1]; 30 mg/kg i.p. 60 min prior to testing,No significant effects
same,reduction of Glut-induced necrosis (neuronal damage),[3],40-50%
same,reduction of overall damage,"[4]; 1, 10 and 100 μM",30-40%
same,fast inactivation gating of voltage-gated Na+ channels,[9],does not exert its effects on neuronal excitability by affecting fast inactivation gating
C[C@]12N[C@H](Cc3ccccc31)c1ccccc12 [MK-801],"neuronal damage (PI uptake, CA1-CA3) 24 h after Glut",[3]; [10],significant protection
same,reduction of neuronal damage,"[3]; 10 μM, PI uptake 24 h after Glut",~80%
same,overall damage (LDH release) 24 h after Glut,[4]; [10],significant protection
same,reduction of overall damage,[4]; 10 μM,~50%
